Patent US6087366A (The Trustees of Columbia University in the City of New York, priority 1996, dated 2000)
Where two headings read alike, the source gives them in different places.

What was measured:
[1] = tested on: neuronally-differentiated PC12 cells; assay: survival of neuronally-differentiated PC12 cells after NGF withdrawal; format: cell-based, rat; conditions: for EC (maximal): Rattus norvegicus
Method: (§1) For survival experiments, naive or neuronally-differentiated PC12 cells were washed extensively in serum-, NGF-free medium as previously described (6,24) and replated onto collagen-coated 24-well tissue culture dishes at a density of approximately 2×10^5 cells per well. The final volume of medium in each well, including all drugs was 1 ml. To allow time for blockade of DNA synthesis, naive PC12 cells were, in some cases, pretreated with drug for 16 hr prior to serum withdrawal. NGF-treated neuronally-differentiated cells were not pretreated with drug prior to serum deprivation. At appropriate times of culture under the desired conditions, cells were lysed and the numbers of viable cells were determined as previously described (24). The number of intact nuclei was determined by counting in a hemacytometer. All counts were performed in triplicate, and survival data are expressed as a percentage of cells plated on day 0+/-SEM.

[2] = tested on: sympathetic neurons; assay: rate of protein synthesis ([3H]-leucine incorporation) in sympathetic neurons; format: cell-based; conditions: Rattus norvegicus, Sympathetic neuron
Method: (§2) Neuronally-differentiated PC12 cells and sympathetic neurons were plated on 24-well dishes as described above. After the cultures were pretreated with the appropriate drug for 1 hr, 5 μCi [^3 H]-leucine was added per well and the cells were allowed to incorporate the isotope for 10 hr. The cultures were washed and prepared for scintillation counting as described above for thymidine incorporation. Background levels of radioactivity was determined by treating wells with 5 μg/ml cycloheximide. All experimental points were performed in triplicate and the data are presented relative to untreated control samples as mean+/-SEM.

[3] = tested on: c-Jun kinase (JNK); assay: in vitro solid-phase kinase assay, phosphorylation of GST-c-Jun by activated JNK; format: biochemical, rat; conditions: for IC50: read-out: IC50, inhibition of GST-c-Jun phosphorylation by activated JNK in vitro
Method: (§3) c-Jun kinase (JNK) was affinity purified from PC12 cell extracts with GST-c-Jun (a gift from Dr. Michael Karin, University of California, San Diego) bound to GSH-agarose beads (Sigma) by methods previously described (34). c-Jun kinase activity was determined by an in vitro solid-phase kinase assay as described previously (34). Activated c-Jun kinase was isolated from PC12 cells treated with 0.5 mM sodium arsenite for 30 min. […] GST-c-Jun was resolved on a 8.5% SDS gel and incorporation of ^32 PO4 was quantified by autoradiography and densitometry.

[4] = tested on: neuronally-differentiated PC12 cells; assay: rate of protein synthesis ([3H]-leucine incorporation) in neuronally-differentiated PC12 cells; format: cell-based, rat
Method: as §2

[5] = survival of neuronally-differentiated PC12 cells after NGF withdrawal; format: cell-based, rat; conditions: rat; post-mitotic neuronally-differentiated PC12 cells, with NGF, day 3; read-out: death in the presence of NGF
Method: as §1

[6] = tested on: c-Jun kinase (JNK); assay: c-Jun kinase activation in NGF-deprived neuronally-differentiated PC12 cells; format: cell-based, rat; conditions: flavopiridol 1 μM, olomoucine 200 μM
Method: as §3

[7] = survival of naive PC12 cells with or without serum; format: cell-based, rat; conditions: rat, naive pc12 cells; serum-containing medium, day 3; read-out: death of naive PC12 cells in the presence of serum
Method: as §1

[8] = tested on: naive PC12 cells; assay: survival of naive PC12 cells with or without serum; format: cell-based, rat; conditions: 16 hrs pretreatment, serum withdrawal
Method: as §1

[9] = tested on: rat sympathetic neurons; assay: survival of rat sympathetic neurons after NGF withdrawal; format: cell-based; conditions: for survival of NGF-deprived sympathetic neurons: flavopiridol 1 μM, iso-olomoucine 200 μM
Method: The cells were plated in 0.5 ml of medium per well in collagen-coated 24-well dishes at a density of approximately 0.5 ganglia per well. […] To eliminate non-neuronal cells, a mixture of uridine and 5-fluorodeoxyuridine (10 μM each) were added to the cultures on the following day. […] The appropriate drug and/or NGF or anti-mouse NGF antibody (1:200 dilution) was added in a final volume of 0.5 ml of the same medium described above. At appropriate times, the numbers of viable, phase bright neurons were determined by strip counting as previously described (33). All survival data are expressed as relative to the original number of cells counted for each well. All experimental points were performed in triplicate and are reported as mean+/-SEM,

[10] = tested on: cdk1; conditions: read-out: IC50, inhibition of cdk1 activity; cited from earlier work
[11] = tested on: naive PC12 cells; assay: [3H]-thymidine incorporation by naive PC12 cells; format: cell-based, rat; conditions: compared with olomoucine
Method: Naive PC12 cells were plated in collagen-coated 24-well dishes at a density of 4×10^5 per well in RPMI 1640 medium containing 3 μM insulin (Sigma) or 10% horse serum and 5% fetal calf serum. […] The cells were pretreated with the appropriate drug for a period of 16 hr prior to the addition of 1 μCi per well of [^3 H]-thymidine (NEN Products, Dupont). The cells were exposed to thymidine for 1-2 hour and then washed three times with cold PBS. Each well was extracted with 1 ml of 10% TCA at 4° C. for 1 hr, and the insoluble material was solubilized overnight at room temperature with 0.3 ml 1N NaOH. After neutralization with an equal volume of 1 N HCl, the solution was quantified by scintillation counting. The level of background counts was determined by treating cells with 10 μM aphidicolin. All experimental points were performed in triplicate. All data are presented relative to untreated control samples as mean+/-SEM.

[12] = tested on: GST-ERK1; conditions: read-out: IC50, inhibition of GST-ERK1 activity in vitro; cited from earlier work
[13] = neuronally-differentiated PC12 cells

Row | SMILES | IC50 [3] [µM] | cytotoxicity at 72 h [5] [%] | protection from cell death after NGF withdrawal [1, 13] | level of JNK activation after NGF deprivation [6] | cytotoxicity at 72 h [7] [%] | survival of serum-deprived naive PC12 cells [8] | survival of NGF-deprived sympathetic neurons [9] | other results
1 | COc1cccc(-c2cc(=O)c3ccccc3o2)c1N [PD 098059] | – | – | – | – | – | – | – | NGF-stimulated neurite regeneration ([1]; 20-100 μM, PC12 cells passaged into serum-free medium with NGF): effectively suppressed NGF-stimulated neurite regeneration; effect on NGF-promoted survival ([1]; 20-100 μM, naive or neuronally-differentiated PC12 cells, serum-free medium with or without NGF): neither blocked nor mimicked the capacity of NGF to promote survival
2 | CN1CC[C@H](c2c(O)cc(O)c3c(=O)cc(-c4ccccc4Cl)oc23)[C@H](O)C1 [flavopiridol, (-) cis-5,7-dihydroxy-2-(2-chlorophenyl) -8[4-(3-hydroxy-1-methyl) -piperidinyl]-4H-benzopyran-4-one] | > 12 | ~20 | good maintenance of survival even 5 days after NGF withdrawal | did not decrease the level of JNK activation | 75 | died somewhat more quickly than control cells | full survival for at least four days | inhibition at 1 µM [2]: ~25%; effect on in vitro phosphorylation of GST-c-Jun ([3]; 12 μM): no effect; effect on in vitro phosphorylation of GST-c-Jun ([3]; 50 μM): significantly inhibited phosphorylation; inhibition at 1 µM ([4]; Rattus norvegicus, PC-12): ~25%; EC (maximal) ([1]; PC-12, neuronally-differentiated PC12 cells, serum-free medium, read-out: concentration of maximal protection from death induced by NGF withdrawal): 1 µM
3 | Cn1cnc2nc(NCCO)nc(NCc3ccccc3)c21 [iso-olomoucine] | – | – | far less effective than olomoucine | – | – | – | ineffective | IC50 [10]: > 500 µM; inhibition of thymidine incorporation [11]: far less effective than olomoucine
4 | Cn1cnc2c(NCc3ccccc3)nc(NCCO)nc21 [olomoucine, 2-(2-hydroxyethylamino) -6-benzylamino-9-methylpurine] | ~100 | ~20 | – | did not decrease the level of JNK activation | 75 | died at about the same rate as control cells | – | inhibition at 200 µM [2]: ~30%; effect on protein synthesis ([4]; PC12 cell cultures, 200 μM): no effect; EC (maximal) ([1]; PC-12, read-out: concentration of maximal protection from death induced by NGF withdrawal): 200 µM; IC50 [12]: 30 µM; viability at 200 µM ([9]; Rattus norvegicus, Sympathetic neuron, 168 h, read-out: neurons still viable): ~75%
